Patent US4629683A, “Processing silver halide photographic material with blocked agent and hydroxylamine” (Fuji Photo Film Co., Ltd., priority 1983, dated 1986)

Tests used:
[1] = Acceleration effect of hydroxylamine upon release of antifoggant from precursor (HPLC, half-life); assay type: physicochemical; design: key to Acceleration Effect: ratio of half-life without hydroxylamine to half-life with it; conditions: for t1/2 Hydroxylamine Absent / t1/2 Hydroxylamine Present: release of antifoggant; for change in releasing speed due to addition of hydroxylamine: in words, pH 10.0 and 11.0
Method: Measurement of Acceleration Effect of Hydroxylamine upon Release of Antifoggant from Precursor Thereof
(§1) The resulting solution was added to a mixture of 16 ml of acetonitrile and 20 ml of Britton-Robinson buffer solution (Britton-Robinson buffer solution can be prepared by mixing phosphoric acid, boric acid, acetic acid and sodium hydroxide, and of which pH can be adjusted within a pH range of 1.81 to 11.98), and allowed to react (wherein the pH of the solution was controlled by the buffer solution). After a definite time, acetic acid was added to lower the pH of the reaction mixture to 6.25 and thereby the reaction stopped. The antifoggant released was determined using high-speed liquid chromatography and therefrom the rate constant of the pseudo first-order reaction and, further, the half-life t1/2 were evaluated.
(§2) The acceleration effect of hydroxylamine was determined by comparison of the half-life value in the hydroxylamine present present case and that in the hydroxylamine-absent case and, further, compared with effects of known precursors of the kind which release antifoggants without ring-cleavage (Comparison Precursor (A-1) and Comparison Precursor (A-2)).

[2] = Acceleration effect of hydroxylamine upon release of pyrazolidones from precursors (half-life); assay type: physicochemical; conditions: for Acceleration Effect: pH 10.0, half-life hydroxylamine absent vs present; for t1/2 Hydroxylamine Absent / t1/2 Hydroxylamine Present: release of pyrazolidones; for t1/2 Hydroxylamine Absent: pH 10.0, hydroxylamine absent; for t1/2 Hydroxylamine Present: pH 10.0, hydroxylamine present
Method: as §1, §2
Measurement of Acceleration Effect on Hydroxylamine upon Release of Pyrazolidones from Precursors Thereof
The acceleration effects of hydroxylamine upon release of pyrazolidones were determined in the same way as in Example 1, and the results obtained are shown in Table 2 below.

[3] = pH 10.0, half-life hydroxylamine absent vs present
[4] = pH 11.0, half-life hydroxylamine absent vs present
[5] = pH 10.0, hydroxylamine present (3.8×10^-4 mole)
[6] = pH 11.0, hydroxylamine present (3.8×10^-4 mole)

Row | Acceleration Effect [1, 3] | Acceleration Effect [1, 4] | t1/2 Hydroxylamine Absent ([1]; pH 10.0, hydroxylamine absent) | t1/2 Hydroxylamine Present [1, 5] | t1/2 Hydroxylamine Absent ([1]; pH 11.0, hydroxylamine absent) | t1/2 Hydroxylamine Present [1, 6] | Acceleration Effect [2] | t1/2 Hydroxylamine Absent [2] | t1/2 Hydroxylamine Present [2] | SMILES | change in releasing speed due to addition of hydroxylamine [1]
1 | 27 | 25 | 9,000 sec | 340 s | 980 s | 39 s | – | – | – | O=C1OC(Sc2nnnn2-c2ccccc2)(c2ccccc2)c2ccc([N+](=O)[O-])cc21 (centres unmarked) [(III)-(14)] | –
2 | 5.0 | 4.1 | 3,500 sec | 700 s | 420 s | 100 s | – | – | – | CN1C(=O)c2cccc(N(C)C(=O)Sc3nnnn3-c3ccccc3)c2C1=O [(IV)-(2)] | –
3 | – | – | – | – | – | – | 6.3 | 5,600 sec | 880 s | CN1C(=O)c2cccc(N(C)C(=O)OC3=NN(c4ccccc4)CC3(C)CO)c2C1=O (centres unmarked) [(IV)-(5)] | –
4 | 25 | 27 | 53,000 sec | 2,100 sec | 6,200 sec | 230 s | – | – | – | CN(C(=O)Sc1nnnn1-c1ccccc1)c1cccc2c1COC2=O [(V)-(1)] | –
5 | 0.61 | 0.82 | 2,600 sec | 4,200 sec | 310 s | 380 s | – | – | – | O=C1CC(Sc2nnnn2-c2ccccc2)C(=O)N1c1ccccc1 (centres unmarked) [Comparison Precursor (A-1), reference compound] | reduced the releasing speed rather than accelering it, or hardly showed any appreciable change in the releasing speed
6 | 1.1 | 1.1 | 25,000 sec | 23,000 sec | 2,900 sec | 2,700 sec | – | – | – | CC(CC#N)Sc1nnnn1-c1ccccc1 (centres unmarked) [Comparison Precursor (A-2), reference compound] | reduced the releasing speed rather than accelering it, or hardly showed any appreciable change in the releasing speed
7 | – | – | – | – | – | – | 3.6 | 9,400 sec | 2,600 sec | O=C1c2ccccc2C(=O)N1CN1C(=O)CCN1c1ccccc1 [Compound (I)-(13), 1-phenyl-2-(N-phthalimidomethyl)-3-pyrazolidinone] | –
8 | – | – | – | – | – | – | 8.2 | 3,200 sec | 390 s | O=C1c2ccccc2C(=O)N1COC1=NN(c2ccccc2)CC1 [Compound (I)-(14), 1-phenyl-3-(N-phthalimidomethyloxy)-2-pyrazoline] | –
9 | – | – | – | – | – | – | 21 | 9,300 sec | 440 s | O=C1CCN(c2ccccc2)N1CN1C(=O)c2ccccc2S1(=O)=O [Compound (I)-(18), N-(1-phenyl-3-pyrazolidinone-2-ylmethyl)saccharin] | –

The remaining lines, values behind:

Row | SMILES | Acceleration Effect [1, 3] | Acceleration Effect [1, 4] | t1/2 Hydroxylamine Absent ([1]; pH 10.0, hydroxylamine absent) | t1/2 Hydroxylamine Present [1, 5] | t1/2 Hydroxylamine Absent ([1]; pH 11.0, hydroxylamine absent) | t1/2 Hydroxylamine Present [1, 6] | Acceleration Effect [2] | t1/2 Hydroxylamine Absent [2] | t1/2 Hydroxylamine Present [2] | change in releasing speed due to addition of hydroxylamine [1]
10 | O=C1c2ccc([N+](=O)[O-])cc2C(=O)N1CSc1nnnn1-c1ccccc1 [(I)-(10)] | 8.1 | 3.0 | 320 s | 38 s | 37 s | 12 s | – | – | – | –
11 | O=C1c2ccccc2S(=O)(=O)N1CSc1nnnn1-c1ccccc1 [(I)-(15)] | 37 | 16 | 3,700 sec | 100 s | 470 s | 29 s | – | – | – | –
12 | CNC(=O)Nc1cccc(-n2nnnc2SCN2C(=O)c3ccccc3S2(=O)=O)c1 [(I)-(16)] | 35 | 18 | 4,100 sec | 120 s | 490 s | 27 s | – | – | – | –
13 | CC1(C)CN(c2ccccc2)N(CN2C(=O)c3ccccc3S2(=O)=O)C1=O [(I)-(19)] | – | – | – | – | – | – | 19 | 7,200 sec | 370 s | –
14 | O=C1CCC(=O)N1CSc1nnnn1-c1ccccc1 [(II)-(1)] | 5.2 | 2.5 | 5,700 sec | 1,200 sec | 650 s | 260 s | – | – | – | –
15 | O=C1OC(Sc2nnnn2-c2ccccc2)c2ccccc21 (centres unmarked) [(III)-(1)] | 29 | 30 | 27,000 sec | 960 s | 3,300 sec | 110 s | – | – | – | –
16 | O=C1OC(N2C(=O)CCN2c2ccccc2)c2ccc([N+](=O)[O-])cc21 (centres unmarked) [(III)-(7)] | – | – | – | – | – | – | 29 | 13,000 sec | 450 s | –
